The values that follow come from patent US9840496B2, “CD38 inhibitors and methods of treatment” (GlaxoSmithKline Intellectual Property (No.2) Limited, priority 2014, dated 2017).

For this assay, the target named is T1, human CD38 (Homo sapiens, UniProt P28907).
T1 construct: The extracellular domain of human CD38 was expressed in pichia pastoris and purified to homogeneity; made in house; host or cells: Pichia pastoris
T1 sequence (P28907 43-300 limits assumed): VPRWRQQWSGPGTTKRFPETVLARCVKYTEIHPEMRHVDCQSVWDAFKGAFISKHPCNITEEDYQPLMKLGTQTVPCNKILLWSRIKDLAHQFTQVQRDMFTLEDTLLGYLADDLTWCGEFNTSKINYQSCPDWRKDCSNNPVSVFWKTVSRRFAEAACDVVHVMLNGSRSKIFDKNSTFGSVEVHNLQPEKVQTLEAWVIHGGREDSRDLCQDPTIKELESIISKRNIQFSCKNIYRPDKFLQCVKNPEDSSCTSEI
Put plainly: human CD38 enzyme activity colorimetric assay. It counts as biochemical. The settings on record: extracellular domain of human CD38, 0.4 nM CD38, 100 uM NAD+. As for the experimental part:
The extracellular domain of human CD38 was expressed in pichia pastoris and purified to homogeneity. The enzyme activity assay was performed in a low-volume 384-well plate in a total volume of 20 μL. A range of concentrations of test compound in 200 nL DMSO was delivered into the assay plate wells. Columns 6 and 18 of the plate contained DMSO with no compound and served as the high signal and low signal controls (no CD38 added), respectively. All additions of assay reagents to the plate were done using a Multidrop Combi, and the plate was shaken 3-5 seconds after each addition. CD38 (0.8 nM) was incubated with test compound in 10 μL containing 100 mM HEPES, pH 7.4, 4 mM EDTA, and 1 mM CHAPS for 30 minutes prior to initiation of the reaction. The reaction was initiated by a 10 μL addition containing 5 mM sodium acetate, pH 4.5, 1 mM CHAPS, 200 μM NAD+ and 500 uM GW323424X. The solutions for each of the two additions were prepared fresh each day from concentrated stocks of the individual components. […] Catalytic formation of this novel chromophore was followed in an Envision microplate reader by reading absorbance at two time points, typically 30 minutes apart within the first 45 minutes of the reaction. These time points were established empirically to ensure the rates determined were in a linear range of product formation. Data analysis was performed in the following way using ActivityBase XE (Abase XE). The data from the 15 and 45 minute reads was processed by performing a subtraction function of 45 minute read value minus 15 minute read value for each plate well. The resulting values for non-control wells were converted to % inhibition using the formula 100*((U−C1)/(C2−C1)) where U is the value of the test well, C1 is the average of the values of the high signal (column 6) control wells, and C2 is the average of the values of the low signal (column 18) control wells. Percent inhibition (y) was plotted versus inhibitor concentration (x), and curve fitting was performed with the following four parameter equation: y=A+((B−A)/(1+(10^x/10^C)^D)), where A is the minimum response, B is the maximum response, C is the log10IC50, and D is the Hill slope.

`CCC(O)(CN[C@H]1CC[C@H](NC(=O)c2cc(-n3ccnc3)cc3cc[nH]c23)CC1)C(F)(F)F` (stereo partly drawn) [example 1, N-((1r,4r)-4-((2-Hydroxy-2-(trifluoromethyl)butyl)amino)cyclohexyl)-5-(1Himidazol-1-yl)-1H-indole-7-carboxamide] registered an IC50 of 500 to 1000 nM. The result for `CC(O)(COC1CCC(NC(=O)c2cc(-n3ccnc3)cc3cc[nH]c23)CC1)C1CC1` (stereo not drawn) [example 15, N-((1r,4r)-4-(2-Cyclopropyl-2-hydroxypropoxy)cyclohexyl)-5-(1H-imidazol-1-yl)-1H-indole-7-carboxamide] reads below 500 nM; that for `CC(O)(C(=O)N[C@H]1CC[C@H](NC(=O)c2cc(-n3ccnc3)cc3cc[nH]c23)CC1)C(F)(F)F` (stereo partly drawn) [example 11, 5-(1H-Imidazol-1-yl)-N-((1r,4r)-4-(3,3,3-trifluoro-2-hydroxy-2-methylpropanamido)cyclohexyl)-1H-indole-7-carboxamide], below 500 nM; that for `CC(O)CO[C@H]1CC[C@H](NC(=O)c2cc(-n3ccnc3)cc3c(Cl)c[nH]c23)CC1` (stereo partly drawn) [example 8, 3-Chloro-N-((1r,4r)-4-(2-hydroxypropoxy)cyclohexyl)-5-(1H-imidazol-1-yl)-1H-indole-7-carboxamide], 500 to 1000 nM. With `C[C@@H](CS(C)(=O)=O)N[C@H]1CC[C@H](NC(=O)c2cc(-n3ccnc3)cc3cc[nH]c23)CC1` [example 16, 5-(1H-Imidazol-1-yl)-N-((1R,4r)-4-(((R)-1-(methylsulfonyl)propan-2-yl)amino)cyclohexyl)-1H-indole-7-carboxamide] the figure was above 1000 nM; with `CC(O)(CN[C@H]1CC[C@H](NC(=O)c2cc(-n3ccnc3)cc3cc[nH]c23)CC1)C(F)(F)F` (stereo partly drawn) [example 10, 5-(1H-Imidazol-1-yl)-N-((1r,4r)-4-((3,3,3-trifluoro-2-hydroxy-2-methylpropyl)amino)cyclohexyl)-1H-indole-7-carboxamide], above 1000 nM. For “N-((1r,4r)-4-(2-Hydroxy-2-methylpropoxy)cyclohexyl)-5-(1H-imidazol-1-yl)-1H-indole-7-carboxamide [example 6]”, the IC50 is below 500 nM.

Take `CC(C)C(O)CO[C@H]1CC[C@H](NC(=O)c2cc(-n3ccnc3)cc3cc[nH]c23)CC1` (stereo partly drawn) [example 14, N-((1r,4r)-4-(2-Hydroxy-3-methylbutoxy)cyclohexyl)-5-(1H-imidazol-1-yl)-1H-indole-7-carboxamide]: the IC50 is below 500 nM.

`CNC(=O)[C@H]1CC[C@H](NC(=O)c2cc(-n3ccnc3)cc3cc[nH]c23)CC1` [example 4, 5-(1H-Imidazol-1-yl)-N-((1s,4s)-4-(methylcarbamoyl)cyclohexyl)-1H-indole-7-carboxamide] gave an IC50 below 500 nM. As for `CC(O)(CO[C@H]1CC[C@H](NC(=O)c2cc(-n3ccnc3)cc3cc[nH]c23)CC1)C(F)(F)F` (stereo partly drawn) [example 9], the IC50 is below 500 nM. Turning to `CC(O)CO[C@H]1CC[C@H](NC(=O)c2cc(-n3ccnc3)cc3cc[nH]c23)CC1` (stereo partly drawn) [example 7, N-((1r,4r)-4-(2-Hydroxypropoxy)cyclohexyl)-5-(1H-imidazol-1-yl)-1H-indole-7-carboxamide], the IC50 was below 500 nM. With `C[C@](CO)(N[C@H]1CC[C@H](NC(=O)c2cc(-n3ccnc3)cc3cc[nH]c23)CC1)C(F)(F)F` [example 2, 5-(1H-Imidazol-1-yl)-N-((1R,4r)-4-(((R)-1,1,1-trifluoro-3-hydroxy-2-methylpropan-2-yl)amino)cyclohexyl)-1H-indole-7-carboxamide] the figure was 500 to 1000 nM; with `CC(C)c1c[nH]c2c(C(=O)N[C@H]3CC[C@H](OCC(C)(C)O)CC3)cc(-n3ccnc3)cc12` [example 3, N-((1r,4r)-4-(2-Hydroxy-2-methylpropoxy)cyclohexyl)-5-(1H-imidazol-1-yl)-3-isopropyl-1H-indole-7-carboxamide], above 1000 nM.

Regarding `O=C(N[C@H]1CC[C@H](NCC(F)F)CC1)c1cc(-n2ccnc2)cc2c(Cl)c[nH]c12` [example 13, 3-Chloro-N-((1r,4r)-4-((2,2-difluoroethyl)amino)cyclohexyl)-5-(1H-imidazol-1-yl)-1H-indole-7-carboxamide], the IC50 is above 1000 nM. The molecule `O=C(N[C@H]1CC[C@H](NCC(F)F)CC1)c1cc(-n2ccnc2)cc2cc[nH]c12` [example 12, N-((1r,4r)-4-((2,2-Difluoroethyl)amino)cyclohexyl)-5-(1H-imidazol-1-yl)-1H-indole-7-carboxamide] came in with an IC50 below 500 nM.
